Measurements as given in US20240391909A1, “DISULFIDE COMPOUND, POLYSULFIDE COMPOUND, AND USE THEREOF” (KUMIAI CHEMICAL INDUSTRY CO., LTD., priority 2021, published 2024).

Test system: Helicoverpa armigera
Test: Insecticidal activity test against Helicoverpa armigera (cabbage leaf dip)
Assay type: in vivo
Details: hatched larvae, 25° C., after 6 days
Experimental: A wettable powder prepared in accordance with Formulation Example 1 was diluted with water to a concentration of 500 ppm as the active ingredient. A cabbage leaf was dipped in the resultant chemical solution, air-dried, and then put in a plastic cup. Five hatched larvae of Helicoverpa armigera were released therein, and the resultant was covered. Thereafter, the resultant was placed in a constant temperature chamber of 25° C., and after 6 days, the number of dead larvae was counted to obtain a corrected mortality rate in accordance with the following equation of Expression 1. The test was performed in duplicate.

[1] = 500 ppm active ingredient, same test run with comparative formula A, 2-a retested at the same time

Compound	corrected mortality rate (500 ppm active ingredient (wettable powder diluted with water), first test) [%]	corrected mortality rate [1] [%]
Cn1nc(C(F)(F)F)c(CSSCc2c(C(F)(F)F)nn(C)c2OC(F)F)c1OC(F)F [Compound 2-a, 1,2-bis[(5-difluoromethoxy-1-methyl-3-trifluoromethylpyrazol-4-yl)methyl]disulfide]	75	89
Cc1cc(CSSCc2cc(C)[nH]n2)n[nH]1 [formula A, reference compound]		44
